From ChEMBL document CHEMBL1201862, “PubChem BioAssay data set” (2004)
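Tested at 5 concentrations; 48 h exposure; 96-well plates; endpoints linearly interpolated, else capped at highest concentration. GI50 is the concentration that inhibits growth by half.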 Active and inactive are the calls of the source. Cut-off read from the data, not from the text of the source: active = GI50 up to about 1.1 µM and inactive = higher.

Tests used:
Assay in all cases: DTP human tumour cell line panel, 48 h
MDA-N = system: MDA-N
SK-MEL-5 = system: SK-MEL-5
HT-29 = system: HT-29
SK-OV-3 = system: SK-OV-3
HOP-62 = system: HOP-62
UACC-62 = system: UACC-62
A498 = system: A498
ACHN = system: ACHN
SF-268 = system: SF-268
LOX IMVI = system: LOX IMVI
UACC-257 = system: UACC-257
SNB-19 = system: SNB-19
Malme-3M = system: Malme-3M
M14 = system: M14
NCI-H226 = system: NCI-H226
SF-539 = system: SF-539
PC-3 = system: PC-3
HL-60 = system: HL-60
SK-MEL-28 = system: SK-MEL-28
HCC 2998 = system: HCC 2998

Measured: GI50

CN(CC(=O)O)Cc1c(O)c(Cl)cc(Cl)c1Cl
inactive: MDA-N 47.2 µM | SK-MEL-5 24.7 µM | HT-29 33.2 µM | SK-OV-3 > 100 µM | HOP-62 29 µM | UACC-62 23.1 µM | A498 46.1 µM | ACHN 36.5 µM | SF-268 21.4 µM | LOX IMVI 14 µM | UACC-257 19.8 µM | SNB-19 48.4 µM | Malme-3M 27.4 µM | M14 22.2 µM | NCI-H226 22.8 µM | SF-539 22.4 µM | PC-3 41.4 µM | HL-60 13.9 µM | SK-MEL-28 24.5 µM

Cc1ccc(-c2nc(C)c(C(=O)Nc3ccc(Cl)cc3)s2)cc1
inactive: MDA-N > 100 µM | SK-MEL-5 20.1 µM | HT-29 > 100 µM | SK-OV-3 19 µM | HOP-62 13.4 µM | UACC-62 19.6 µM | A498 14.3 µM | ACHN 18.4 µM | SF-268 26.5 µM | LOX IMVI 31.1 µM | UACC-257 > 100 µM | SNB-19 20.5 µM | Malme-3M 36.4 µM | M14 27.7 µM | NCI-H226 20.6 µM | SF-539 29.9 µM | PC-3 44.8 µM | HL-60 > 100 µM | SK-MEL-28 > 100 µM

Cc1[nH]c2ncn3nc(C(Cl)(Cl)Cl)nc3c2c1Cc1ccccc1
inactive: MDA-N > 100 µM | SK-MEL-5 > 100 µM | HT-29 > 100 µM | HCC 2998 > 100 µM | SK-OV-3 > 100 µM | HOP-62 > 100 µM | UACC-62 > 100 µM | A498 > 100 µM | ACHN > 100 µM | SF-268 > 100 µM | UACC-257 > 100 µM | SNB-19 > 100 µM | Malme-3M > 100 µM | M14 > 100 µM | NCI-H226 > 100 µM | SF-539 > 100 µM | PC-3 > 100 µM | HL-60 > 100 µM | SK-MEL-28 > 100 µM

COc1ccc(S(=O)(=O)NC(CCC(=O)NN)C(=O)NN)cc1 (stereo not drawn)
inactive: MDA-N > 100 µM | SK-MEL-5 > 100 µM | HT-29 > 100 µM | SK-OV-3 > 100 µM | HOP-62 > 100 µM | UACC-62 > 100 µM | A498 > 100 µM | ACHN > 100 µM | LOX IMVI > 100 µM | UACC-257 > 100 µM | SNB-19 > 100 µM | Malme-3M > 100 µM | M14 > 100 µM | SF-539 > 100 µM | PC-3 > 100 µM | HL-60 > 100 µM | SK-MEL-28 > 100 µM

O=C1CC(=O)NC(NN2C(=O)/C(=C/c3ccccc3)N=C2c2ccccc2)=N1
inactive: MDA-N > 100 µM | SK-MEL-5 > 100 µM | HT-29 > 100 µM | HCC 2998 > 100 µM | SK-OV-3 > 100 µM | HOP-62 > 100 µM | UACC-62 26.7 µM | A498 > 100 µM | ACHN > 100 µM | SF-268 > 100 µM | UACC-257 > 100 µM | Malme-3M > 100 µM | M14 > 100 µM | NCI-H226 > 100 µM | SF-539 > 100 µM | PC-3 > 100 µM | SK-MEL-28 > 100 µM

CO/N=C1\CCC2(O)C3Cc4ccc(O)c5c4C2(CCN3CC2CC2)[C@H]1O5 (stereo partly drawn)
inactive: MDA-N > 100 µM | SK-MEL-5 > 100 µM | HT-29 > 100 µM | SK-OV-3 > 100 µM | HOP-62 > 100 µM | UACC-62 > 100 µM | A498 > 100 µM | ACHN > 100 µM | SF-268 > 100 µM | LOX IMVI > 100 µM | SNB-19 > 100 µM | Malme-3M > 100 µM | M14 > 100 µM | NCI-H226 > 100 µM | SF-539 > 100 µM | PC-3 > 100 µM | HL-60 > 100 µM | SK-MEL-28 > 100 µM

S=c1[nH]c(=S)c2cc(Sc3ccc4[nH]c(=S)[nH]c(=S)c4c3)ccc2[nH]1
inactive: MDA-N 40.9 µM | SK-MEL-5 46.9 µM | HT-29 41 µM | HCC 2998 37.3 µM | SK-OV-3 24.3 µM | UACC-62 20 µM | A498 24.5 µM | ACHN 35.2 µM | SF-268 24.2 µM | UACC-257 43.3 µM | SNB-19 30.4 µM | Malme-3M 55.3 µM | M14 66.7 µM | NCI-H226 20.4 µM | SF-539 30.2 µM | PC-3 52.5 µM | HL-60 20.8 µM | SK-MEL-28 53.8 µM

Fc1cccc(F)c1C(Nc1nncs1)Nc1nncs1
inactive: MDA-N 38 µM | SK-MEL-5 > 100 µM | HT-29 47.2 µM | HCC 2998 > 100 µM | SK-OV-3 > 100 µM | HOP-62 > 100 µM | UACC-62 > 100 µM | A498 > 100 µM | ACHN > 100 µM | SF-268 > 100 µM | UACC-257 > 100 µM | SNB-19 > 100 µM | Malme-3M > 100 µM | M14 59.6 µM | NCI-H226 > 100 µM | SF-539 49 µM | PC-3 > 100 µM | SK-MEL-28 > 100 µM

CN(C)CCOc1ccc2[nH]c(C(=O)N3CC(CCl)c4c3cc([N+](=O)[O-])c3ccccc43)cc2c1 (stereo not drawn)
inactive: MDA-N 3.68 µM | SK-MEL-5 1.7 µM | HT-29 2.15 µM | SK-OV-3 27.3 µM | HOP-62 1.88 µM | UACC-62 2.21 µM | A498 2.94 µM | ACHN 1.95 µM | SF-268 1.71 µM | LOX IMVI 2.58 µM | UACC-257 2.01 µM | SNB-19 2.36 µM | Malme-3M 1.94 µM | M14 2.07 µM | NCI-H226 54.1 µM | SF-539 1.69 µM | PC-3 2.78 µM | HL-60 3.2 µM | SK-MEL-28 1.72 µM

O=C(N/N=C/C=C/c1ccccc1)c1ccccc1Nc1ccccc1C(=O)N/N=C/C=C/c1ccccc1
inactive: MDA-N > 100 µM | SK-MEL-5 > 100 µM | HT-29 > 100 µM | HCC 2998 > 100 µM | SK-OV-3 > 100 µM | HOP-62 3.58 µM | UACC-62 93.5 µM | A498 > 100 µM | ACHN > 100 µM | SF-268 34.4 µM | UACC-257 > 100 µM | SNB-19 11.9 µM | Malme-3M > 100 µM | M14 48 µM | NCI-H226 > 100 µM | PC-3 > 100 µM | HL-60 > 100 µM | SK-MEL-28 > 100 µM

Clc1ccc(OCc2nnc(CCCCCCCCc3nnc(COc4ccc(Cl)cc4)o3)o2)cc1
inactive: MDA-N > 100 µM | SK-MEL-5 > 100 µM | HT-29 > 100 µM | HCC 2998 > 100 µM | SK-OV-3 57.8 µM | UACC-62 > 100 µM | A498 > 100 µM | ACHN > 100 µM | SF-268 32.3 µM | UACC-257 > 100 µM | SNB-19 34.1 µM | Malme-3M 3.58 µM | M14 89.7 µM | NCI-H226 > 100 µM | PC-3 > 100 µM | SK-MEL-28 > 100 µM
